In patent US9132176B2, “RAB6KIFL/KIF20A epitope peptide and vaccines containing the same” (ONCOTHERAPY SCIENCE, INC., priority 2008, dated 2015):
Where a SMILES comes first, the peptide text is derived from it.

Assays:
PANC1 = assay: 51Cr release assay of peptide-induced CTLs against PANC1; assay type: cell-based, human; conditions: PANC1 (RAB6KIFL+, HLA-A2+); healthy donors
Text: (§1) Human RAB6KIFL-derived peptides (purity>95%), carrying binding motifs for HLA-A2 (A*0201)-encoded molecules, were selected using the BIMAS software program (BioInformatics and Molecular Analysis Section, Center for Information Technology, NIH, Bethesda, Md.) and 36 peptides were synthesized (American Peptide Company, CA, USA) (Tables 1A and B). Monocyte-derived DCs were used as antigen-presenting cells to induce CTL responses against peptides presented in the context of HLA. DCs were generated in vitro culture as described previously (Yoshitake Y, et al. Clin Cancer Res 2004; 10:6437-48, Harao M, et al. Int J Cancer 2008; in press, Imai K, et al. Clin Cancer Res 2008; in press). Briefly, PBMCs isolated from a normal volunteer positive for HLA-A2 using Ficoll-Plaque (GE Healthcare UK, Ltd., Buckinghamshire, UK) solution were sorted to CD8^+ population and CD14^+ population with microbeads (Miltenyi Biotec, Bergisch Gladbach, Germany). To generate DCs, the CD14^+ population was cultured in the presence of 100 ng/mL granulocyte-macrophage colony-stimulating factor (GM-CSF; PeproTec Inc., NJ, USA) and 10 ng/mL interleukin (IL)-4 (PeproTec) in AIM-V (Invitrogen) containing 2% heat-inactivated autologous plasma. After 5 days of culture, OK-432 was added into the dish to make the DCs mature. […]
(§2) The CTLs were cocultured with each of the cancer cells, or the peptide-pulsed T2 cells, as a target cell (5×10^3/well) at the indicated effector/target ratio and a standard ^51Cr release assay was done as described previously (Yoshitake Y, et al. Clin Cancer Res 2004; 10:6437-48. Imai K, et al. Clin Cancer Res 2008; in press). […] After 6 h incubation, 50 micro L of the supernatant was collected from each well and the radioactivity was quantified using a gamma counter. The specific cytotoxicity was evaluated by calculating the percentage of specific ^51Cr release. […]

SKHep1/RAB6KIFL = assay: 51Cr release assay of peptide-induced CTLs against SKHep1/RAB6KIFL; assay type: cell-based, human; conditions: SKHep1 transfected with RAB6KIFL gene (RAB6KIFL high, HLA-A2+)
Description: (§3) A lentiviral vector-mediated gene transfer was performed as described previously (Imai K, et al. Clin Cancer Res 2008; 14:6487-95, Tahara-Hanaoka S, et al. Exp Hematol 2002; 30:11-7). Briefly, 17 micro-g of CSII-CMV-RfA and CSIIEF-RfA self-inactivating vectors (Miyoshi H, et al. J Virol 1998; 72: 8150-7) carrying RAB6KIFL cDNAs and 10 micro-g of pCMV-VSV-G-RSV-Rev and pCAG-HIVgp were transfected into the 293T cells grown in a 10-cm culture dish using Lipofectamine 2000 reagent (Invitrogen Corporation, Carlsbad, Calif., USA). After 60 hr of transfection, the medium was recovered and the viral particles were pelleted by ultra-centrifugation (50,000×g, 2 hr). The pellet was suspended in 50 micro-L of RPMI 1640 medium and 10 micro-L of viral suspension was added to 5×10^4 SKHep1 cells, per well in a flat-bottom 96-well plate. The expression of the transfected RAB6KIFL gene was confirmed by a Western blot analysis.
as §1, with “Germany).” for “Germany). To generate DCs, the CD14^+ population was cultured in the presence of 100 ng/mL granulocyte-macrophage colony-stimulating factor (GM-CSF; PeproTec Inc., NJ, USA) and 10 ng/mL interleukin (IL)-4 (PeproTec) in AIM-V (Invitrogen) containing 2% heat-inactivated autologous plasma. After 5 days of culture, OK-432 was added into the dish to make the DCs mature.”

CaCo-2 = assay: 51Cr release assay of peptide-induced CTLs against CaCo-2; assay type: cell-based, human; conditions: CaCo-2 (RAB6KIFL+, HLA-A2+); healthy donors
Text: as §1, §2

SKHep1/Mock = assay: 51Cr release assay of peptide-induced CTLs against SKHep1/Mock; assay type: cell-based, human; conditions: mock-transfected SKHep1
Description: as §3
as §1, with “Germany).” for “Germany). To generate DCs, the CD14^+ population was cultured in the presence of 100 ng/mL granulocyte-macrophage colony-stimulating factor (GM-CSF; PeproTec Inc., NJ, USA) and 10 ng/mL interleukin (IL)-4 (PeproTec) in AIM-V (Invitrogen) containing 2% heat-inactivated autologous plasma. After 5 days of culture, OK-432 was added into the dish to make the DCs mature.”

T2 cells = assay: Induction of human CTLs from PBMCs, 51Cr release assay against peptide-pulsed T2 cells; assay type: cell-based; conditions: CTLs from PBMCs of two HLA-A2-positive healthy donors, three stimulations with peptide-pulsed DCs
Text: as §1, §2

[1] = test system: cancer cells expressing both RAB6KIFL and HLA-A2; assay: Comparison of the cytotoxicity of CTLs induced by the three peptides; assay type: cell-based, human; conditions: vs RAB6KIFL-A2-9-12 and RAB6KIFL-A2-10-284
Description: The CTLs were cocultured with each of the cancer cells, or the peptide-pulsed T2 cells, as a target cell (5×10^3/well) at the indicated effector/target ratio and a standard ^51Cr release assay was done as described previously (Yoshitake Y, et al. Clin Cancer Res 2004; 10:6437-48. Imai K, et al. Clin Cancer Res 2008; in press). Briefly, target cells were labeled with 3.7 KBq […] (Perkin Elmer Life Sciences) for 1 h at 37 degree C. in a CO2 incubator. Labeled target cells were rinsed three times, and peptide-pulsed target cells were prepared by incubating the cells with 20 micro g/mL peptide for 3 h at 37 degrees C. Target cells were mixed with effector cells in final volume of 200 micro L in flat-bottomed microtiter plates and incubated. After 6 h incubation, 50 micro L of the supernatant was collected from each well and the radioactivity was quantified using a gamma counter. The specific cytotoxicity was evaluated by calculating the percentage of specific ^51Cr release.
The potential of RAB6KIFL as an immunotherapeutic target was verified herein by identifying the HLA-A2-restricted epitope peptides and evaluating their immunogenicity. […]

HLA-A2 (HHD) Tgm = assay: Autoimmune phenomenon after peptide vaccination: immunohistochemistry with anti-CD4/anti-CD8 mAb and observation; assay type: in vivo, mouse
Description: Western blotting and immunohistochemical staining of RAB6KIFL protein were performed as described previously (Nakatsura T, et al. Biochem Biophys Res Commun 2001; 281:936-44. Yoshitake Y, et al. Clin Cancer Res 2004; 10:6437-48). For Western blotting analyses of human normal tissues, a pre-made human adult normal tissue blot (Biochain, Hayward, Calif.) was used. The primary antibodies used herein, anti-RAB6KIFL polyclonal antibody, and monoclonal anti-b-actin antibody, were purchased from Bethyl Laboratories, Inc. (Montgomery, Tex., USA) and Sigma (Steinheim, Germany), respectively. Immunohistochemical staining of CD4 or CD8 in tissue specimens of HLA-A2.1 (HHD) Tgm immunized with the RAB6KIFL-A2-10-284 peptide was done as described previously (Matsuyoshi H, et al. 2004; 172:776-86).
It is very important to investigate whether the immunization with RAB6KIFL peptide induce an autoimmune reaction or not. We thus performed the immunohistochemical analysis of several vital organs with anti-CD4 and anti-CD8 mAb in HLA-A2 (HHD) Tgm after two-times vaccination with RAB6KIFL-A2-9-809 peptide, of which amino-acid sequences were completely conserved between human and mouse RAB6KIFL. […] The abnormalities frequently observed in mice affected with autoimmune diseases such as abnormal hair and skin, diarrhea and weight loss were also not observed in these mice.

Structure (SMILES)	cytotoxicity of peptide-stimulated CTLs to PANC1 (PANC1)	cytotoxicity of peptide-induced CTLs against SKHep1/RAB6KIFL (SKHep1/RAB6KIFL)	cytotoxicity of peptide-stimulated CTLs to CaCo-2 (CaCo-2)	cytotoxicity of peptide-induced CTLs against SKHep1/Mock (SKHep1/Mock)	cytotoxic activity of induced CTLs to T2 cells pulsed with the peptide (T2 cells)	cytotoxicity of peptide-induced CTLs compared with CTLs induced by the other two peptides [1]	pathologic change (lymphocyte infiltration or tissue destruction suggesting autoimmunity) in vital organs (HLA-A2 (HHD) Tgm; after two-times vaccination, anti-CD4 and anti-CD8 staining)	abnormalities of autoimmune disease (abnormal hair and skin, diarrhea, weight loss) (HLA-A2 (HHD) Tgm; mouse, in vivo)
CC(C)C[C@H](NC(=O)[C@@H](N)CC(C)C)C(=O)N[C@@H](CO)C(=O)N[C@@H](CC(=O)O)C(=O)N[C@@H](CC(=O)O)C(=O)N[C@@H](CC(=O)O)C(=O)N[C@H](C(=O)N[C@H](C(=O)N[C@H](C(=O)O)C(C)C)C(C)C)C(C)C [RAB6KIFL-A2-9-12, LLSDDDVVV] (H-LLSDDDVVV-OH; N-terminus and C-terminus assumed)	exhibited cytotoxicity	exhibited cytotoxicity	exhibited cytotoxicity	but not against SKHep1/Mock	exhibited cytotoxic activity	–	–	–
CC[C@H](C)[C@H](NC(=O)[C@@H](N)CS)C(=O)N[C@@H](C)C(=O)N[C@@H](CCC(=O)O)C(=O)N[C@@H](CCC(N)=O)C(=O)N[C@@H](Cc1ccc(O)cc1)C(=O)N[C@@H](Cc1c[nH]cn1)C(=O)N[C@H](C(=O)N[C@H](C(=O)O)C(C)C)[C@@H](C)O [RAB6KIFL-A2-9-809, CIAEQYHTV] (H-CIAEQYHTV-OH; N-terminus and C-terminus assumed)	exhibited cytotoxicity	exhibited cytotoxicity	exhibited cytotoxicity	but not against SKHep1/Mock	exhibited cytotoxic activity	stronger cytotoxicity	no pathologic change	not observed
CC(C)C[C@H](NC(=O)[C@@H]1CCCN1C(=O)[C@H](C)NC(=O)[C@@H](NC(=O)[C@H](CC(=O)O)NC(=O)[C@@H]1CCCN1C(=O)[C@H](CCC(N)=O)NC(=O)[C@H](C)N)[C@@H](C)O)C(=O)N1CCC[C@H]1C(=O)N[C@H](C(=O)O)C(C)C [RAB6KIFL-A2-10-284, AQPDTAPLPV] (H-AQPDTAPLPV-OH; N-terminus and C-terminus assumed)	exhibited cytotoxicity	exhibited cytotoxicity	exhibited cytotoxicity	but not against SKHep1/Mock	exhibited cytotoxic activity	–	–	–
